Assay results reported in patent US20060281771A1, “SYNERGISTIC MODULATION OF FLT3 KINASE USING AMINOQUINOLINE AND AMINOQUINAZOLINE KINASE MODULATORS” (priority 2005, published 2006).

Experiments:
MV4-11 cells = test: Inhibition of MV4-11 cell proliferation (CellTiterGlo, 72 h); assay type: cell-based; conditions: Homo sapiens; 72 h growth inhibition
Experimental: To assess the cellular potency of the FLT3 inhibitors of Formula I′, FLT3 specific growth inhibition was measured in the leukemic cell line MV4-11 (ATCC Number: CRL-9591). […] MV4-11 cells cannot grow and survive without active FLT3ITD.
To measure proliferation inhibition by test compounds, the luciferase based CellTiterGlo reagent (Promega), which quantifies total cell number based on total cellular ATP concentration, was used. Cells are plated at 10,000 cells per well in 100 ul of in RPMI media containing penn/strep, 10% FBS and 1 ng/ml GM-CSF or 1 ng/ml IL-3 for MV4-11 and Baf3 cells respectively.
Compound dilutions or 0.1% DMSO (vehicle control) are added to cells and the cells are allowed to grow for 72 hours at standard cell growth conditions (37° C., 5% CO2). For activity measurements in MV4-11 cells grown in 50% plasma, cells were plated at 10,000 cells per well in a 1:1 mixture of growth media and human plasma (final volume of 100 μL). To measure total cell growth an equal volume of CellTiterGlo reagent was added to each well, according to the manufacturer's instructions, and luminescence was quantified. Total cell growth was quantified as the difference in luminescent counts (relative light units, RLU) of cell number at Day 0 compared to total cell number at Day 3 (72 hours of growth and/or compound treatment). One hundred percent inhibition of growth is defined as an RLU equivalent to the Day 0 reading. Zero percent inhibition was defined as the RLU signal for the DMSO vehicle control at Day 3 of growth. All data points are an average of triplicate samples. […] Inhibition and IC50 data analysis was done with GraphPad Prism using a non-linear regression fit with a multiparamater, sigmoidal dose-response (variable slope) equation.
MV4-11 cells express the FLT3 internal tandem duplication mutation, and thus are entirely dependent upon FLT3 activity for growth. […] In contrast, the Baf3 cell proliferation is driven by the cytokine IL-3 and thus are used as a non-specific toxicity control for test compounds.

[1] = biological target: T1, wild-type FLT3 phosphorylation in Baf3 FLT3 cells (Homo sapiens, UniProt P36888); test: Cell-based FLT3 receptor ELISA; conditions: FLT ligand-induced FLT3 phosphorylation
T1 construct: host or cells: Baf3 (murine B cell lymphoma line)
T1 sequence (P36888 27-993): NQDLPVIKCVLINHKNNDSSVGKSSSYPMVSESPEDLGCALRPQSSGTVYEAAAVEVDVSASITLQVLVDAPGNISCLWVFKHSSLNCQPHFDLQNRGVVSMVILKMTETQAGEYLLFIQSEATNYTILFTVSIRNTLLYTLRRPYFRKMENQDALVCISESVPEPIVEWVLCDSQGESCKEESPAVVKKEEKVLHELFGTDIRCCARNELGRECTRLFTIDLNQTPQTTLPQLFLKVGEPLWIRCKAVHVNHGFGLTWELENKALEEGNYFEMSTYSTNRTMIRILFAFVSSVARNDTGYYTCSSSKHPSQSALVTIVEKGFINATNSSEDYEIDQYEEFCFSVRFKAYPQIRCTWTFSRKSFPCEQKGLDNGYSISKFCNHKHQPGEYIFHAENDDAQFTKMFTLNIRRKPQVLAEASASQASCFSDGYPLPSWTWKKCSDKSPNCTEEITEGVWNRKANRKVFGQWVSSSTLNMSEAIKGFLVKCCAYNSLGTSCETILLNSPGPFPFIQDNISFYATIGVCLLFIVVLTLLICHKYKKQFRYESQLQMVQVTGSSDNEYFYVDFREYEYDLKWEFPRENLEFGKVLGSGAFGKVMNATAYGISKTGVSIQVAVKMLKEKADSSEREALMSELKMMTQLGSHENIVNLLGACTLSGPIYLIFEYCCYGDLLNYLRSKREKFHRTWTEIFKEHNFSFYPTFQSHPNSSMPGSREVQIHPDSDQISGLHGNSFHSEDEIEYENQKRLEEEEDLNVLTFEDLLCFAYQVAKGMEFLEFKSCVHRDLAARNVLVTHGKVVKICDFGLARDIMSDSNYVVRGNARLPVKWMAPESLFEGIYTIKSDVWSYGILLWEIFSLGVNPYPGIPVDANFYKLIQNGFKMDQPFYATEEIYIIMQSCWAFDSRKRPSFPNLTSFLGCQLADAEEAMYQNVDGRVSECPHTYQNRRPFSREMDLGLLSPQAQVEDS
Experimental: Specific cellular inhibition of FLT ligand-induced wild-type FLT3 phosphorylation was measured in the following manner: Baf3 FLT3 cells overexpressing the FLT3 receptor were obtained from Dr. Michael Heinrich (Oregon Health and Sciences University). The Baf3 FLT3 cell lines were created by stable transfection of parental Baf3 cells (a murine B cell lymphoma line dependent on the cytokine IL-3 for growth) with wild-type FLT3. Cells were selected for their ability to grow in the absence of IL-3 and in the presence of FLT3 ligand.
Baf3 cells were maintained in RPMI 1640 with 10% FBS, penn/strep and 10 ng/ml FLT ligand at 37° C., 5% CO2. To measure direct inhibition of the wild-type FLT3 receptor activity and phosphorylation a sandwich ELISA method was developed similar to those developed for other RTKs (see Sadick, M D, Sliwkowski, M X, Nuijens, A, Bald, L, Chiang, N, Lofgren, J A, Wong W L T. Analysis of Heregulin-Induced ErbB2 Phosphorylation with a High-Throughput Kinase Receptor Activation Enzyme-Linked Immunsorbent Assay, Analytical Biochemistry. 1996; 235:207-214 and Baumann C A, Zeng L, Donatelli R R, Maroney A C. Development of a quantitative, high-throughput cell-based enzyme-linked immunosorbent assay for detection of colony-stimulating factor-1 receptor tyrosine kinase inhibitors. J Biochem Biophys Methods. 2004; 60:69-79.). 200 μL of Baf3FLT3 cells (1×10^6/mL) were plated in 96 well dishes in RPMI 1640 with 0.5% serum and 0.01 ng/mL IL-3 for 16 hours prior to 1 hour compound or DMSO vehicle incubation. Cells were treated with 100 ng/mL Flt ligand (R&D Systems Cat# 308-FK) for 10 min. at 37° C. Cells were pelleted, washed and lysed in 100 ul lysis buffer (50 mM Hepes, 150 mM NaCl, 10% Glycerol, 1% Triton-X-100, 10 mM NaF, 1 mM EDTA, 1.5 mM MgCl2, 10 mM NaPyrophosphate) supplemented with phosphatase (Sigma Cat# P2850) and protease inhibitors (Sigma Cat #P8340). Lysates were cleared by centrifugation at 1000×g for 5 minutes at 4° C. Cell lysates were transferred to white wall 96 well microtiter (Costar #9018) plates coated with 50 ng/well anti-FLT3 antibody (Santa Cruz Cat# sc-480) and blocked with SeaBlock reagent (Pierce Cat#37527). Lysates were incubated at 4° C. for 2 hours. Plates were washed 3× with 200 ul/well PBS/0.1% Triton-X-100. Plates were then incubated with 1:8000 dilution of HRP-conjugated anti-phosphotyrosine antibody (Clone 4G10, Upstate Biotechnology Cat#16-105) for 1 hour at room temperature. Plates were washed 3× with 200 ul/well PBS/0.1% Triton-X-100. Signal detection with Super Signal Pico reagent (Pierce Cat#37070) was done according to manufacturer's instruction with a Berthold microplate luminometer. All data points are an average of triplicate samples. […] Inhibition and IC50 data analysis was done with GraphPad Prism using a non-linear regression fit with a multiparamater, sigmoidal dose-response (variable slope) equation.

Row | IC50 (MV4-11 cells) [nM] | IC50 [1] [nM] | SMILES
1 | 1 | 1 | COCCOc1ccc2c(N3CCC(NC(=O)Nc4ccc(C(C)C)cc4)C3)ncnc2c1 (stereo not drawn) [Compound 71, 1-(4-Isopropyl-phenyl)-3-{1-[7-(2-methoxy-ethoxy)-quinazolin-4-yl]-pyrrolidin-3-yl}-urea]
2 | 134 | 16 | COc1cc2ncnc(N3CCC(NC(=O)Nc4ccc(N5CCCC5)nc4)CC3)c2cc1OC [Compound 68, 1-[1-(6,7-Dimethoxy-quinazolin-4-yl)-piperidin-4-yl]-3-(6-pyrrolidin-1-yl-pyridin-3-yl)-urea]
3 | 470 | 1400 | COc1cc2ncnc(N3CCC(NC(=O)Nc4ccc(OC5CCCC5)cc4)CC3)c2cc1OC [Compound 67, 1-(4-Cyclopentyloxy-phenyl)-3-[1-(6,7-dimethoxy-quinazolin-4-yl)-piperidin-4-yl]-urea]
4 | 830 | 6600 | COc1cc2ncnc(N3CCC(NC(=O)Nc4ccc(N(C)C)cc4)C3)c2cc1OC (stereo not drawn) [Compound 52, 1-[1-(6,7-Dimethoxy-quinazolin-4-yl)-pyrrolidin-3-yl]-3-(4-dimethylamino-phenyl)-urea]
5 | 172 | 46 | COc1cc2ncnc(N3CCCC(COC(=O)Nc4ccc(OC5CCCC5)cc4)C3)c2cc1OC (stereo not drawn) [Compound 57, (4-Cyclopentyloxy-phenyl)-carbamic acid 1-(6,7-dimethoxy-quinazolin-4-yl)-piperidin-3-ylmethyl ester]
6 | 1700 | 82 | COc1cc2ncnc(N3CCC(COC(=O)Nc4ccc(C(C)C)cc4)CC3)c2cc1OC [Compound 22, (4-Isopropyl-phenyl)-carbamic acid 1-(6,7-dimethoxy-quinazolin-4-yl)-piperidin-4-ylmethyl ester]
7 | 16 | 11 | COc1ccc2ncnc(N3CCC(NC(=O)Nc4ccc(C(C)C)cc4)CC3)c2c1 [Compound 64, 1-(4-Isopropyl-phenyl)-3-[1-(6-methoxy-quinazolin-4-yl)-piperidin-4-yl]-urea]
8 | 1 | 1 | CC(C)c1ccc(NC(=O)NC2CCN(c3ncnc4cc(OCCCN5CCN(C)CC5)ccc34)CC2)cc1 [Compound 75, 1-(4-Isopropyl-phenyl)-3-(1-{7-[3-(4-methyl-piperazin-1-yl)-propoxy]-quinazolin-4-yl}-piperidin-4-yl)-urea]
9 | 128 | < 1 | CC(C)c1ccc(NC(=O)NC2CCN(c3ncnc4cc(F)ccc34)C2)cc1 (stereo not drawn) [Compound 69, 1-[1-(7-Fluoro-quinazolin-4-yl)-pyrrolidin-3-yl]-3-(4-isopropyl-phenyl)-urea]
10 | 528 | 18 | COc1cc2ncnc(N3CCC(NC(=O)Nc4ccc(N5CCCC5)cc4)CC3)c2cc1OC [Compound 60, 1-[1-(6,7-Dimethoxy-quinazolin-4-yl)-piperidin-4-yl]-3-(4-pyrrolidin-1-yl-phenyl)-urea]
11 | 502 | 20 | CC(C)c1ccc(NC(=O)NC2CCN(c3ncnc4ccccc34)CC2)cc1 [Compound 63, 1-(4-Isopropyl-phenyl)-3-(1-quinazolin-4-yl-piperidin-4-yl)-urea]
12 | 410 | 43 | COc1cc2ncnc(N3CCC(NC(=O)Nc4ccc(N5CCOCC5)cc4)CC3)c2cc1OC [Compound 59, 1-[1-(6,7-Dimethoxy-quinazolin-4-yl)-piperidin-4-yl]-3-(4-morpholin-4-yl-phenyl)-urea]
13 | 941 | 16 | COc1cc2ncnc(N3CCC(NC(=O)Nc4ccc(N(C)C)cc4)CC3)c2cc1OC [Compound 62, 1-[1-(6,7-Dimethoxy-quinazolin-4-yl)-piperidin-4-yl]-3-(4-dimethylamino-phenyl)-urea]
14 | 21 | 80 | CC(C)c1ccc(NC(=O)NC2CCN(c3ncnc4cc(OCCN5CCCC5=O)ccc34)C2)cc1 (stereo not drawn) [Compound 70, 1-(4-Isopropyl-phenyl)-3-(1-{7-[2-(2-oxo-pyrrolidin-1-yl)-ethoxy]-quinazolin-4-yl}-pyrrolidin-3-yl)-urea]
15 | 177 | 4 | CC(C)c1ccc(NC(=O)NC2CCN(c3ncnc4cc(OCCN5CCCC5=O)ccc34)CC2)cc1 [Compound 74, 1-(4-Isopropyl-phenyl)-3-(1-{7-[2-(2-oxo-pyrrolidin-1-yl)-ethoxy]-quinazolin-4-yl}-piperidin-4-yl)-urea]
16 | 7 | 180 | COc1cc2ncnc(N3CCC(NC(=O)Nc4ccc(OC(C)C)cc4)CC3)c2cc1OC [Compound 58, 1-[1-(6,7-Dimethoxy-quinazolin-4-yl)-piperidin-4-yl]-3-(4-isopropoxy-phenyl)-urea]
17 | 208 | 109 | COCCOc1ccc2c(N3CCC(NC(=O)Nc4ccc(C(C)C)cc4)CC3)ncnc2c1 [Compound 73, 1-(4-Isopropyl-phenyl)-3-{1-[7-(2-methoxy-ethoxy)-quinazolin-4-yl]-piperidin-4-yl}-urea]
18 | 560 | 420 | COc1cc2ncnc(N3CCC(OC(=O)Nc4ccc(OC5CCCC5)cc4)CC3)c2cc1OC [Compound 55, (4-Cyclopentyloxy-phenyl)-carbamic acid 1-(6,7-dimethoxy-quinazolin-4-yl)-piperidin-4-yl ester]
